Laboratory results from publication PMC8587043, “An Investigation into the Interaction between Double Hydroxide-Based Antioxidant Benzophenone Derivatives and Cyclooxygenase 2” (Molecules, 2021).

Columns and labels:
EA.hy926 cells = assay: Protective effect against H2O2-induced oxidative damage, MTT assay; format: cell-based, human; conditions: for EC50: Homo sapiens, EA.hy 926, 4 h, protection against H2O2-induced damage (400 µmol·L^−1, 4 h), n = 3, mean ± SD; for protection rate compared with positive controls (fenofibrate and quereetin): statistical comparison
Description: Hydrogen peroxide (H2O2), a small molecule and functions as oxidative stress and a second messenger which contributes to cell damage or death, could directly induce inflammation in several cell lines. H2O2-induced cell damage is a commonly used model for antioxidant activity evaluation. […] Thus, the concentration of 400 µmol·L^−1 at 4 h was chosen as the model.
Compound SC2 stock solutions were prepared in DMSO. The stock solutions were diluted with FBS free DMEM to different target concentrations (DMSO concentrations ≤ 0.5% v:v). Cells (100 μL, 2 × 10^5 cells∙mL^−1) were seeded on 96-well plates and cultured for 24 h. The medium was then replaced with fresh media containing H2O2 with different concentrations (0, 100, 200, 300, 400, 500, and 600 μmol·L^−1 in FBS free DMEM) and compound SC2 (50, 40, 30, 20, 10 µmol·L^−1), which were transferred to the incubator and cultured for additional time (2, 4, and 6 h). The medium was then replaced with 100 μL of FBS free DMEM and MTT (10 μL, 5 mg·mL^−1 in PBS) and after 4 h the medium was replaced with DMSO (100 μL). A microplate reader (SpectraMaxPlus384, Molecular Devices, United States) was used to record the absorbance at 490 nm for each well of the plates. Cell viability was measured via MTT assay. Survival rate (%) = (Asample group/Acontrol group) × 100%.
Cells (100 μL, 2 × 10^5 cells·mL^−1) were seeded in 96-well plates for 24 h. Cells were treated with different groups and cell viability was measured via MTT assay. The protection rates to oxidative damage were determined and EC50 values were calculated. The protection rates to cells were calculated using the following formula: Protection rate (%) = (Apretreatment group − Amodel group)/(Acontrol group − Amodel group) × 100%.

COX2 = target: T1, COX2 (Homo sapiens, UniProt P35354); assay: Fluorescence quenching of COX2 (Stern-Volmer, double logarithm, thermodynamic parameters); format: binding; conditions: for Kq (bimolecular quenching constant): Kq = Ksv/τ0
T1 construct: purchased Sino Biological Co. (Beijing, China)
T1 sequence (P35354 18-604): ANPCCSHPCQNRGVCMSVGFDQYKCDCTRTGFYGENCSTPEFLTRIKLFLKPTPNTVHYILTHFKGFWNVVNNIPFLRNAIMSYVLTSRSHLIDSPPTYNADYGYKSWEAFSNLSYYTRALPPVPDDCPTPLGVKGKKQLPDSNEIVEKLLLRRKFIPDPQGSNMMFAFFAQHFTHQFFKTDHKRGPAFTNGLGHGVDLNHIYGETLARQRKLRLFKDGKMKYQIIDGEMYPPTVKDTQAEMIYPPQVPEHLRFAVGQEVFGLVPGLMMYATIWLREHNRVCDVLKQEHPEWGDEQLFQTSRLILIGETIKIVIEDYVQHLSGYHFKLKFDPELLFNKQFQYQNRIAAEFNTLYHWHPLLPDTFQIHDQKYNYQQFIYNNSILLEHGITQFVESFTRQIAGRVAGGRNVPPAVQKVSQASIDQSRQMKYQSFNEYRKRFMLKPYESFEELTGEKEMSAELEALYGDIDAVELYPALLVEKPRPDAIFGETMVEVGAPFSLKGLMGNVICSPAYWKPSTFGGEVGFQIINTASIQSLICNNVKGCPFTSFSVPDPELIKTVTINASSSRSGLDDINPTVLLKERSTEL
Source text: The emitted fluorescence spectra of COX2 solution (6.0 × 10^−8 mol∙L^−1) without and with an increasing concentration of compounds DB2, SC2 or YB2 (7.5 × 10^−6 mol∙L^−1 to 4.5 × 10^−5 mol∙L^−1) at different temperatures are shown in Figure 4a,b, Figure 4c,d or Figure 4e,f, respectively. […] The quenching constant Kq and Stern–Volmer constant Ksv at different temperatures are usually used to identify the quenching mechanisms, static or dynamic. The former is caused by ground-state complex formation, the latter is diffusion. For the static quenching mechanism, the quenching constant decreases with temperature increase. In this part, we calculated the Kq and Ksv values by using a universally accepted Stern–Volmer equation [38]:(1) F0/F=1+Kqτ0[Q]=1+Ksv[Q] where F0 and F are the protein fluorescence intensities in the absence and the presence of quencher (compounds DB2, SC2 or YB2), respectively. Kq = Ksv/ τ0 . τ0 is the fluorescence lifetime of the fluorophore without the quencher ([…]). [Q] is the concentration of quencher. The Stern-Volmer plots of COX2 fluorescence quenching by compounds DB2, SC2 or YB2 are presented in Figure 5a, Figure 5b or Figure 5c, respectively. According to Table 1, the Ksv and Kq values for all three systems (COX2-DB2, COX2-SC2 and COX2-YB2) decreased with increasing temperature. Therefore, we considered that the quenching was static quenching. To further verify that the system was static quenching, dynamic quenching was assumed first.
For the static quenching, we can use the double logarithm equation to obtain the binding constant (KA) and the number of binding sites per protein (n):(2) lgF0−F/F=lgKA+nlg[Q]
There are four main kinds of non-covalent forces between drugs and proteins. These are electrostatic force, hydrogen bonding, hydrophobic force and van der Waals force. The kind of interaction between compounds DB2, SC2 or YB2 and COX2 can be obtained from thermodynamic parameters, including the free energy change (ΔG), enthalpy change (ΔH) and entropy change (ΔS) of the reaction. The three thermodynamic parameters can be obtained according to the published equations [42, 44]:(3) ΔG=−RTlnK (4) lnK2/K1=ΔH(1/T1−1/T2)×1/R (5) ΔG=ΔH−TΔS
The fluorescence intensity of the system was measured with a 1.0 cm quartz cell. COX2 protein was dissolved in PBS for a final concentration of 6.0 × 10^−8 mol∙L^−1. DB2, SC2 or YB2 stock solutions were prepared in singleton at 1.5 × 10^−3 mol∙L^−1 in PBS containing 0.1% DMSO. 2.0 mL COX2 solution was separately titrated by continuing additions of 10 μL compounds DB2, SC2 or YB2 solution). After incubation at 298 K or 310 K, fluorescence quenching spectra were recorded in the region 325-450 nm at a scan rate of 1200 nm∙min^−1. The local environment of Tyr and Trp residues was quite sensitive at 280 nm, so the excitation wavelength was set at this wavelength. Typically, 280 nm is also used to measure the changes in protein tertiary structure. The slit widths of emission and excitation were both fixed at 10 nm. To observe spectra behaviors of Tyr and Trp groups of COX2, the wavelength interval between the excitation and emission wavelengths (Δλ) was set as 15 nm and 60 nm, respectively. Three-dimensional fluorescence spectroscopy was obtained for an excitation range of 200–300 nm and an emission range of 325–400 nm. Appropriate buffer solutions, determined under the same operation conditions, were used as blanks. Each spectrum was recorded three times.

Compound | EC50 (EA.hy926 cells) | protection rate compared with positive controls (fenofibrate and quereetin) (EA.hy926 cells) | other results
CCCCc1ccc(C(=O)c2cc(O)c(O)cc2Br)cc1 [DB1] | 7080 ± 92.6 nM |  | 
CCCCc1ccc(C(=O)c2cc(O)c(O)cc2Cl)cc1 [DC1] | 3310 ± 242 nM |  | 
CCCCc1ccc(C(=O)c2c(Cl)cc(O)c(O)c2O)cc1 [DC2] | 1550 ± 924 nM | no significant difference | 
O=c1c(O)c(-c2ccc(O)c(O)c2)oc2cc(O)cc(O)c12 [Quereetin, quercetin, reference compound] | 7980 ± 1230 nM |  | 
CC(C)(C)c1ccc(C(=O)c2cc(O)c(O)cc2Br)cc1 [SB1] | 12 ± 4.8 nM | no significant difference | 
CC(C)(C)c1ccc(C(=O)c2c(Br)cc(O)c(O)c2O)cc1 [SB2] | 25.2 ± 12.2 nM | no significant difference | 
CC(C)(C)c1ccc(C(=O)c2cc(O)c(O)cc2Cl)cc1 [SC1] | 1910 ± 521 nM | no significant difference | 
CC(C)Cc1ccc(C(=O)c2cc(O)c(O)cc2Br)cc1 [YB1] | 8510 ± 957 nM |  | 
CC(C)Cc1ccc(C(=O)c2cc(O)c(O)cc2Cl)cc1 [YC1] | 1910 ± 823 nM |  | 
CC(C)Cc1ccc(C(=O)c2c(Cl)cc(O)c(O)c2O)cc1 [YC2] | 3850 ± 925 nM | no significant difference | 
[3-isobutyl-4-methoxy-5 -(pyrrolidine-1-carbonyl)-phenyl]-butyric acid ethyl ester [Control compound, reference compound] |  |  | KA (binding constant) (COX2; 298 K): 4436.3 ± 718.24 L/mol; Ksv (Stern-Volmer quenching constant) (COX2; 298 K): 1.71 ± 0.297 ×10^4 L∙mol^−1; n (number of binding sites per protein) (COX2; 298 K): 0.947 ± 0.116; Kq (bimolecular quenching constant) (COX2; 298 K): 1.71 ± 0.297 ×10^12 L∙mol^−1∙S^−1; KA (binding constant) (COX2; 310 K): 1417.0 ± 92.261 L/mol; Ksv (Stern-Volmer quenching constant) (COX2; 310 K): 1.05 ± 0.157 ×10^4 L∙mol^−1; n (number of binding sites per protein) (COX2; 310 K): 0.785 ± 0.0195; Kq (bimolecular quenching constant) (COX2; 310 K): 1.05 ± 0.157 ×10^12 L∙mol^−1∙S^−1
